Data as given in US9439904B2, “Pyrimidine compounds and their use as gamma secretase modulators” (Acturum Life Science AB, priority 2013, dated 2016).

Experiments:
Aβ42 [1] = assay: PCN assay: Aβ42 secreted by primary cortical neuronal cells, ELISA; type: cell-based; conditions: primary cortical neuronal cells from 16-day mouse embryos; 16-20 hours incubation with test compound; read-out: pIC50 Aβ42 PCN assay (converted)
Aβ42 [2] = assay: HEK assay: Aβ42 secreted to cell medium, Meso Scale Discovery electrochemiluminescence; type: cell-based; conditions: Homo sapiens, HEK293; HEK cell line stably expressing APPswe; 4-6 hours incubation with test compound; read-out: pIC50 Aβ42 HEK assay (converted)

IC50 (Aβ42 [2]) [nM]	SMILES	IC50 (Aβ42 [1]) [nM]
79.4	COc1cc(Nc2nc(COC(CF)CF)cc(C(C)(C)O)n2)ccc1-n1cnc(C)c1 [Example 50, 2-(6-((1,3-Difluoropropan-2-yloxy)methyl)-2-(3-methoxy-4-(4-methyl-1H-imidazol-1-yl)phenylamino)pyrimidin-4-yl)propan-2-ol]	63.1
63.1	COc1cc(Nc2nc(COCC(F)(F)F)cc(OCC3CC3)n2)ccc1-n1cnc(C)c1 [Example 51, 4-(Cyclopropylmethoxy)-N-[3-methoxy-4-(4-methyl-1H-imidazol-1-yl)phenyl]-6-[(2,2,2-trifluoroethoxy)methyl]pyrimidin-2-amine]	126
200	CCOC1(c2cc(C(C)(C)O)nc(Nc3ccc(-n4cnc(C)c4)c(OC)c3)n2)CC1(F)F (stereo not drawn) [Example 52, 2-(6-(1-Ethoxy-2,2-difluorocyclopropyl)-2-(3-methoxy-4-(4-methyl-1H-imidazol-1-yl)phenylamino)pyrimidin-4-yl)propan-2-ol]	200
